Source: patent publication US7071293B1, “Alpha helical peptides with broad spectrum antimicrobial activity that are insensitive to salt” (priority 1999, dated 2006)
In brackets after ≈: the same amount, converted by molar mass. Like-named read-outs stand apart in the source and are kept apart here. Ends that are not written are not given here.

What was measured:
[1] = system: P. aeruginosa PAO1; settings: for EC50 P. aeruginosa PAO1 μg/ml ± sem: average ± sem
[2] = system: E. coli ML-35p; settings: Table 13; for MIC E. coli [NaCl] High: high salt underlay (10 mM sodium phosphate buffer +100 mM NaCl, pH 7.4); for MIC E. coli [NaCl] Low: low salt underlay (10 mM sodium phosphate buffer, pH 7.4)
[3] = system: P. aeruginosa MR 3007; settings: MR 3007, pH 7.4
[4] = system: E. coli DH5α; settings: for EC50: DH5α; for EC50 E. coli DH5α: ionic strength 25 mM, avg ± sem
[5] = system: MRSA ATCC 33591; settings: ATCC 33591, pH 7.4
[6] = system: S. aureus 930918-3; settings: 930918-3, pH 7.4
[7] = ionic strength 25 mM, avg ± sem
[8] = ionic strength 175 mM, avg ± sem

Q: Which results are given for NIRRIIRKIIHIIKKY [SMAP29X-16D]?
A: EC50 P. aeruginosa PAO1 [1, 7]: 0.70 ± 0.36 µg/mL; EC50 P. aeruginosa PAO1 [1, 8]: 3.64 ± 1.75 µg/mL

Q: Which results are given for LRKFRNKIKEKLKKIGQKIQG [CAP18-21b]?
A: MIC E. coli [NaCl] High [2]: 0.5 µg/mL; MIC E. coli [NaCl] Low [2]: 2.3 µg/mL; EC50 P. aeruginosa PAO1 [1, 7]: 1.83 ± 0.51 µg/mL; EC50 P. aeruginosa PAO1 [1, 8]: 3.45 ± 0.02 µg/mL; MIC P. aeruginosa [NaCl] High [3]: 23.5 µg/mL; MIC P. aeruginosa [NaCl] Low [3]: 2.9 µg/mL; EC50 [4]: 1170 ± 130 nM; EC50 E. coli DH5α [4]: 2.99 ± 0.33 µg/mL; MIC MRSA [NaCl] High [5]: >250 µg/mL; MIC MRSA [NaCl] Low [5]: 10.3 µg/mL; MIC S. aureus [NaCl] High [6]: >250 µg/mL; MIC S. aureus [NaCl] Low [6]: 16.3 µg/mL

Q: Which results are given for IRRIIRKIIHIIKK-NH2 [SMAP29X-14C]?
A: EC50 P. aeruginosa PAO1 [1, 7]: 0.29 ± 0.04 µg/mL; EC50 P. aeruginosa PAO1 [1, 8]: 1.21 ± 0.05 µg/mL

Q: How did the “EC50 P. aeruginosa PAO1” value [1, 7] turn out when `CC[C@H](C)[C@H](N)C(=O)N[C@@H](CCCNC(=N)N)C(=O)N[C@@H](CCCNC(=N)N)C(=O)N[C@H](C(=O)N[C@H](C(=O)N[C@@H](CCCNC(=N)N)C(=O)N[C@@H](CCCCN)C(=O)N[C@H](C(=O)N[C@H](C(=O)N[C@@H](Cc1c[nH]cn1)C(=O)N[C@H](C(=O)N[C@H](C(=O)N[C@@H](CCCCN)C(=O)N[C@@H](CCCCN)C(=O)O)[C@@H](C)CC)[C@@H](C)CC)[C@@H](C)CC)[C@@H](C)CC)[C@@H](C)CC)[C@@H](C)CC` [SMAP29X-14D] was run?
A: Its value is 0.65 ± 0.06 µg/mL (≈ 0.361 µM).

Q: And the “EC50 P. aeruginosa PAO1” value [1, 8]?
A: Its value is 7.11 ± 2.40 µg/mL (≈ 3.95 µM).

Q: How did the “MIC E. coli [NaCl] High” value [2] turn out when “KNLRRIIRKIIHIIKKYGPTILRIIRIIG-NH2 [SMAP29X]” was run?
A: Its value is 0.8 µg/mL.

Q: And the “MIC E. coli [NaCl] Low” value [2]?
A: Its value is 1.5 µg/mL.

Q: What about the “EC50 P. aeruginosa PAO1” value [1, 7] of the same compound?
A: The value was 2.74 ± 0.65 µg/mL.

Q: And the “EC50 P. aeruginosa PAO1” value [1, 8]?
A: Its value is 4.51 ± 0.24 µg/mL.

Q: And the “MIC P. aeruginosa [NaCl] High” value [3]?
A: Its value is 1.0 µg/mL.

Q: And the “MIC P. aeruginosa [NaCl] Low” value [3]?
A: Its value is 2.6 µg/mL.

Q: What about the “MIC MRSA [NaCl] High” value [5] of the same compound?
A: Its value is 1.0 µg/mL.

Q: What about the “MIC MRSA [NaCl] Low” value [5] of the same compound?
A: The value was 6.2 µg/mL.

Q: What about the “MIC S. aureus [NaCl] High” value [6] of the same compound?
A: The value was 1.5 µg/mL.

Q: What about the “MIC S. aureus [NaCl] Low” value [6] of the same compound?
A: Its value is 1.6 µg/mL.

Q: For RGLRALGRKIAHGVKAYG [SMAP29-18AA], which “EC50 P. aeruginosa PAO1” value [1, 7] is on record?
A: The value was 0.62 ± 0.13 µg/mL.

Q: What about the “EC50 P. aeruginosa PAO1” value [1, 8] of the same compound?
A: Its value is 7.85 ± 1.16 µg/mL.

Q: What does the source list for LRRIIRKIIHIIK-NH2 [SMAP29X-13A]?
A: EC50 P. aeruginosa PAO1 μg/ml ± sem ([1]; ionic strength 25 mM): 0.27 ± 0.03 µg/mL; EC50 P. aeruginosa PAO1 μg/ml ± sem ([1]; ionic strength 175 mM): 2.23 ± 0.41 µg/mL

Q: KNIRRIIRKIIHIIKKYG [SMAP29X-18C] was tested. Which “EC50 P. aeruginosa PAO1” value [1, 7] did it give?
A: The value was 0.24 ± 0.01 µg/mL.

Q: And the “EC50 P. aeruginosa PAO1” value [1, 8]?
A: Its value is 0.61 ± 0.12 µg/mL.

Q: For KNIRRIIRKIIHIIKKYG-NH2 [SMAP29X-18B], which “EC50 P. aeruginosa PAO1” value [1, 7] is on record?
A: Its value is 0.16 ± 0.01 µg/mL.

Q: What about the “EC50 P. aeruginosa PAO1” value [1, 8] of the same compound?
A: The value was 0.54 ± 0.05 µg/mL.

Q: For RIIRKIIHII-NH2 [SMAP29X-10], which “EC50 P. aeruginosa PAO1 μg/ml ± sem” value ([1]; ionic strength 25 mM) is on record?
A: Its value is 0.51 ± 0.00 µg/mL.

Q: What about the “EC50 P. aeruginosa PAO1 μg/ml ± sem” value ([1]; ionic strength 175 mM) of the same compound?
A: The value was 18.67 ± 0.97 µg/mL.

Q: How did the “EC50 P. aeruginosa PAO1” value [1, 7] turn out when `CC[C@H](C)[C@H](NC(=O)[C@H](CCCNC(=N)N)NC(=O)[C@H](CCCNC(=N)N)NC(=O)[C@@H](NC(=O)[C@@H](N)CC(N)=O)[C@@H](C)CC)C(=O)N[C@H](C(=O)N[C@@H](CCCNC(=N)N)C(=O)N[C@@H](CCCCN)C(=O)N[C@H](C(=O)N[C@H](C(=O)N[C@@H](Cc1c[nH]cn1)C(=O)N[C@H](C(=O)N[C@H](C(=O)N[C@@H](CCCCN)C(=O)N[C@@H](CCCCN)C(=O)N[C@@H](Cc1ccc(O)cc1)C(N)=O)[C@@H](C)CC)[C@@H](C)CC)[C@@H](C)CC)[C@@H](C)CC)[C@@H](C)CC` [SMAP29X-16C] was run?
A: The value was 0.65 µg/mL (≈ 0.313 µM).

Q: What about the “EC50 P. aeruginosa PAO1” value [1, 8] of the same compound?
A: Its value is 2.21 µg/mL (≈ 1.06 µM).

Q: Which results are given for RKFRNKIKEKLKKIG [CAP18-15a]?
A: MIC E. coli [NaCl] High [2]: 0.7 µg/mL; MIC E. coli [NaCl] Low [2]: 0.2 µg/mL; EC50 P. aeruginosa PAO1 ([1]; PAO1): >20 µg/mL; EC50 P. aeruginosa PAO1 [1, 7]: 1.54 ± 0.43 µg/mL; MIC P. aeruginosa [NaCl] High [3]: 5.3 µg/mL; MIC P. aeruginosa [NaCl] Low [3]: 1.5 µg/mL; EC50 [4]: 240 ± 70 nM; EC50 E. coli DH5α [4]: 0.46 ± 0.12 µg/mL; MIC MRSA [NaCl] High [5]: >250 µg/mL; MIC MRSA [NaCl] Low [5]: >250 µg/mL; MIC S. aureus [NaCl] High [6]: >250 µg/mL; MIC S. aureus [NaCl] Low [6]: 19.5 µg/mL

Q: Which “MIC E. coli [NaCl] High” value [2] does the source give for KIKEKLKKIGQKIQGLL [CAP18-17] here?
A: Its value is 1.9 µg/mL.

Q: What about the “MIC E. coli [NaCl] Low” value [2] of the same compound?
A: The value was 9.7 µg/mL.

Q: What about the “EC50 P. aeruginosa PAO1” value ([1]; PAO1) of the same compound?
A: The value was >25 µg/mL.

Q: What about the “EC50 P. aeruginosa PAO1” value [1, 7] of the same compound?
A: The value was 2.33 ± 0.35 µg/mL.

Q: And the “MIC P. aeruginosa [NaCl] High” value [3]?
A: The value was >250 µg/mL.

Q: What about the “MIC P. aeruginosa [NaCl] Low” value [3] of the same compound?
A: Its value is 5.1 µg/mL.

Q: What about the EC50 [4] of the same compound?
A: The EC50 was 1270 ± 200 nM.

Q: What about the “EC50 E. coli DH5α” value [4] of the same compound?
A: The value was 2.51 ± 0.38 µg/mL.

Q: And the “MIC MRSA [NaCl] High” value [5]?
A: Its value is >250 µg/mL.

Q: And the “MIC MRSA [NaCl] Low” value [5]?
A: Its value is >250 µg/mL.

Q: What about the “MIC S. aureus [NaCl] High” value [6] of the same compound?
A: Its value is >250 µg/mL.

Q: What about the “MIC S. aureus [NaCl] Low” value [6] of the same compound?
A: The value was >250 µg/mL.

Q: With RIIRKIIHIIK-NH2 [SMAP29X-11B] as the compound, how does the “EC50 P. aeruginosa PAO1 μg/ml ± sem” value ([1]; ionic strength 25 mM) read?
A: Its value is 0.46 ± 0.02 µg/mL.

Q: And the “EC50 P. aeruginosa PAO1 μg/ml ± sem” value ([1]; ionic strength 175 mM)?
A: The value was 10.42 ± 0.26 µg/mL.
